# “And” between values parts separate entries of the source, which are not always exact repeats. Equal entries are not always repeated. Where two headings read alike, the source gives them in different places. Positions of bridges follow the written chain, without caps; N, C: chain ends. Non-standard residues stand in square brackets, D forms with d. Residues, ends and D or L forms follow the SMILES beside them. Chains are numbered I, II in the order given. *: point of attachment. RhodamineB = CCN(CC)c1ccc2c(-c3ccccc3C(=O)*)c3ccc(=[N+](CC)CC)cc-3oc2c1; hPhe = N[C@@H](CCc1ccccc1)C(=O)O; 2Abz = Nc1ccccc1C(=O)O; Ahx = NCCCCCC(=O)O
# Experiments:
# Assay type in all cases: cell-based
# [1] = tested on: E. faecalis clinical isolate 82; details: E. faecalis clinical isolate 82
# Method: (§1) E. coli isolates 1004 (susceptible), 129797 (resistant), and 301755 (MDR) were selected for evaluation. Isolate 1004 was sensitive to all antibiotics tested. […] These findings identify it as a multidrug-resistant (MDR) strain and an extended-spectrum beta-lactamase (ESBL)-producing bacterium. For S. aureus, isolates 109095, 117719, and 124653 were evaluated. All three were resistant to penicillin, indicating beta-lactamase production mediated by the blaZ gene. Studies have shown that up to 90% of S. aureus isolates worldwide are penicillin-resistant, which implies that this antibiotic is ineffective in infections caused by this pathogen. […] Isolate 124653 was resistant to penicillin, tetracycline, and erythromycin, with the latter belonging to the group of macrolides, antibiotics that inhibit protein synthesis through interaction with the 50S […] subunit. For E. faecalis three isolates were selected: strains 213 (sensitive to all the antibiotics tested), strain 82 (resistant to streptomycin), and strain 179 (resistant to gentamicin). These clinical isolates were selected to assess the antimicrobial activity of the peptide RWQWRWQWR and its analogues conjugated to fluorescent molecules in strains against strains with susceptibility profiles.
# (§2) The analysis of synthesized peptides in ATCC reference strains and susceptible, resistant, and multidrug-resistant (MDR) clinical isolates was performed. The clinical isolates were obtained from the National Cancer Institute collection and were previously identified and antibiogrammed using the VITEK system. Additionally, the strains were characterized by MALDI-TOF. The strains were re-primed onto trypticase soy agar and subsequently preserved in Brain–Heart Infusion (BHI) broth containing 20% glycerol. For the MIC and MBC assays, the strains were reactivated and cultured in BHI until they reached their exponential growth phase.
# (§3) The minimum inhibitory concentration (MIC) of the peptides was determined by the broth microdilution technique, according to the Clinical and Laboratory Standards Institute (CLSI) guidelines, as previously described. Briefly, bacterial strains were incubated in BHI broth at 37 °C until they reached the exponential growth phase, and inocula were adjusted to 5 × 10^6 CFU/mL using calibration curves. Serial dilutions of the peptides to be evaluated in 96-well plates were made in 90 µL of Mueller Hinton broth at concentrations ranging from 200 to 6.25 µg/mL, and 10 µL of the inoculum adjusted to 5 × 10^6 CFU/mL was added. Finally, the plates were incubated at 37 °C for 24 h, and the absorbance at 620 nm was read. As a negative control, CMH, distilled water, and 10 µL of inoculum were used; for the positive control, vancomycin was used for Gram-positive strains and ciprofloxacin for Gram-negative strains at the MICs dictated by the CLSI; as a technical control, CMH with peptone water was used, and for the growth control, CMH was used with 10 µL of inoculum.
# (§4) To determine the minimum bactericidal concentration (MBC), the 96-well plates where the MIC was determined were used as a starting point. From these, an aliquot of the controls and those wells where no apparent bacterial growth was observed were spotted onto trypticase soy agar plates. The plates were incubated at 37 °C for 24 h, and the reading was taken, identifying the lowest concentration of the peptide where there was no bacterial growth as the MBC.
# [2] = tested on: S. aureus clinical isolate 124653; details: S. aureus clinical isolate 124653
# Method: as §1, §2, §3, §4
# [3] = tested on: E. faecalis clinical isolate 179; details: E. faecalis clinical isolate 179
# Method: as §1, §2, §3, §4
# [4] = tested on: E. faecalis clinical isolate 213; details: E. faecalis clinical isolate 213
# Method: as §1, §2, §3, §4
# [5] = tested on: E. coli clinical isolate 1004 (susceptible); details: E. coli clinical isolate 1004
# Method: as §1, §2, §3, §4
# [6] = tested on: E. coli clinical isolate 301755 (MDR); details: E. coli clinical isolate 301755
# Method: as §1, §2, §3, §4
# [7] = tested on: S. aureus clinical isolate 109095; details: S. aureus clinical isolate 109095
# Method: as §1, §2, §3, §4
# [8] = tested on: E. coli clinical isolate 129797 (resistant); details: E. coli clinical isolate 129797
# Method: as §1, §2, §3, §4
# [9] = tested on: S. aureus clinical isolate 11719; details: S. aureus clinical isolate 11719
# [10] = tested on: clinical isolates of E. faecalis; details: stated for the E. faecalis clinical isolates together
# Method: as §1, with “For E. faecalis three isolates were selected: strains 213 (sensitive to all the antibiotics tested), strain 82 (resistant to streptomycin), and strain 179 (resistant to gentamicin). These clinical isolates were selected to assess the antimicrobial activity of the peptide RWQWRWQWR and its analogues conjugated to fluorescent molecules in strains against strains with susceptibility profiles.” left out
# The minimum inhibitory concentration (MIC) of the peptides was determined by the broth microdilution technique, according to the Clinical and Laboratory Standards Institute (CLSI) guidelines, as previously described. […] Serial dilutions of the peptides to be evaluated in 96-well plates were made in 90 µL of Mueller Hinton broth at concentrations ranging from 200 to 6.25 µg/mL, and 10 µL of the inoculum adjusted to 5 × 10^6 CFU/mL was added. Finally, the plates were incubated at 37 °C for 24 h, and the absorbance at 620 nm was read. […]
# [11] = tested on: P. aeruginosa ATCC 27853; details: P. aeruginosa ATCC 27853
# Method: as §3, §4
# [12] = tested on: E. coli ATCC 25922; details: E. coli ATCC 25922
# Method: as §3, §4
# [13] = tested on: K. pneumoniae ATCC 700603; details: K. pneumoniae ATCC 700603
# Method: as §3, §4
# [14] = tested on: E. faecalis ATCC 29212; details: E. faecalis ATCC 29212
# Method: as §3, §4
# [15] = tested on: S. aureus ATCC 25923; details: S. aureus ATCC 25923
# Method: as §3, §4
# [16] = Hemolysis assay
# Method: Whole blood was collected into EDTA tubes and centrifuged at 2500 rpm for 10 min. The plasma and buffy coat were removed, and the erythrocytes were washed three times with 0.9% saline to yield a 4% cell suspension. In 96-well plates, 100 µL of peptide dilutions (6.25–200 µg/mL) were prepared in triplicate, and 100 µL of the erythrocyte suspension was added (final hematocrit 2%). Plates were incubated at 37 °C for 2 h, and then centrifuged again at 2500 rpm for 10 min. A 100 µL aliquot of the supernatant was transferred to a fresh plate, and absorbance was measured at 450 nm. Saline and 1× Triton X-100 served as the negative and positive controls, respectively. Hemolysis (%) was calculated as follows: %hemolysis=treatment absorbance−saline absorbance/1×triton absorbance−saline absorbance
# [17] = MTT cytotoxicity assay in HeLa cells; details: human
# Method: MTT assays were conducted in HeLa cells to evaluate the effect of fluorescent probe incorporation on the in vitro cytotoxic activity of the parent non-conjugated peptides. The cytotoxic effect of peptides 1, Abz-1 RhB-1, 2, and RhB-2 in HeLa cells was peptide concentration-dependent, with the highest anticancer activity observed at 200 µg/mL. Incorporation of 2-Abz and RhB at the N-terminal end reduced cytotoxic activity, while the binding of 2-Abz at the C-terminal end or FAM at the N-terminal end drastically diminished anticancer activity (Table 4).
# [18] = tested on: HeLa cells; experiment: Fluorescence confocal microscopy, colocalization analysis (ImageJ JaCoP); details: 2 h at IC50, colocalization with SMA antibody
# Method: The possible cellular distribution of the peptides was determined by colocalization analysis of the Rhodamine B fluorescent signal, with fluorophores used to stain the nucleus (Hoechst 33342) and cytoplasm components (SMA antibody). ImageJ 1.54f analysis software and the JaCoP plugin were used to analyze signal colocalization.
# HeLa cells (>70% confluence) were seeded on sterile round coverslips in 24-well plates with DMEM + 5% FBS and incubated at 37 °C, 5% CO2 for 24 h. After adhesion, the medium was replaced, and cells were treated with fluorescent peptides at their IC50 for 2 h. Then, cells were washed with PBS under constant stirring (3 × 10 min). Cellular fixation was performed using a solution containing 2% paraformaldehyde and 1% sucrose 100 mM in PBS for 30 min, followed by PBS washes (2 × 10 min). Permeabilization was carried out using a solution of 0.1% Triton X-100 and 20 mM glycine in PBS for 10 min, followed by two additional PBS washes. Blocking was performed with 1% BSA and 20 mM glycine in PBS for 10 min. […] For the fluorescence lecture, 5 µL of Fluoromount mounting medium was applied to the slide, and the coverslip containing the cells was inverted onto the medium. Slides were allowed to be dry-protected from light, and cells were visualized using a Leica DMi8 fluorescence confocal microscope. […]
# [19] = tested on: HeLa cells; experiment: Micrographs of cell morphology after peptide treatment; details: 100 µg/mL, 2 h, 37 °C
# Description: Despite these pronounced morphological alterations, there was no evidence of cell rupture, membrane disintegration, or the presence of cell fragments, indicating the absence of necrotic processes. […] Green arrows indicate normal morphologies, such as cytoplasmic elongations and polygonal shapes. Red arrows indicate morphological changes induced by the peptides, including cell rounding, shrinkage, and loss of cytoplasmic projections. Scale bar: µm. The control corresponds to untreated cells.
compound,measurement,setting,value
"N=C(N)NCCC[C@H](NC(=O)[C@H](Cc1c[nH]c2ccccc12)NC(=O)[C@H](CCC(N)=O)NC(=O)[C@H](Cc1c[nH]c2ccccc12)NC(=O)[C@H](CCCNC(=N)N)NC(=O)[C@H](Cc1c[nH]c2ccccc12)NC(=O)[C@H](CCC(N)=O)NC(=O)[C@H](Cc1c[nH]c2ccccc12)NC(=O)[C@H](CCCNC(=N)N)NC(=O)c1ccccc1N)C(N)=O [Abz-1, (2-Abz)-RWQWRWQWR] (H-[2Abz]RWQWRWQWR-NH2)",Minimal bactericidal concentration (MBC),[1],62 µM
same,Minimal inhibitory concentration (MIC),[1],31 µM
same,Minimal bactericidal concentration (MBC),[2],> 125 µM
same,Minimal inhibitory concentration (MIC),[2],125 µM
same,Minimal bactericidal concentration (MBC),[3],62 µM
same,Minimal inhibitory concentration (MIC),[3],31 µM
same,Minimal bactericidal concentration (MBC),[4],62 µM
same,Minimal inhibitory concentration (MIC),[4],31 µM
same,Minimal bactericidal concentration (MBC),[5],> 125 µM
same,Minimal inhibitory concentration (MIC),[5],> 125 µM
same,Minimal bactericidal concentration (MBC),[6],> 125 µM
same,Minimal inhibitory concentration (MIC),[6],> 125 µM
same,Minimal bactericidal concentration (MBC),[7],> 125 µM
same,Minimal inhibitory concentration (MIC),[7],125 µM
same,Minimal bactericidal concentration (MBC),[8],> 125 µM
same,Minimal inhibitory concentration (MIC),[8],> 125 µM
same,Minimal bactericidal concentration (MBC),[9],> 125 µM
same,Minimal inhibitory concentration (MIC),[9],125 µM
same,MIC,[10],31 µM
same,Minimal bactericidal concentration (MBC),[11],> 125 µM
same,Minimal inhibitory concentration (MIC),[11],> 125 µM
same,Minimal bactericidal concentration (MBC),[12],125 µM
same,Minimal inhibitory concentration (MIC),[12],62 µM
same,Minimal bactericidal concentration (MBC),[13],> 125 µM
same,Minimal inhibitory concentration (MIC),[13],> 125 µM
same,Minimal bactericidal concentration (MBC),[14],62 µM
same,Minimal inhibitory concentration (MIC),[14],62 µM
same,Minimal bactericidal concentration (MBC),[15],31 µM
same,Minimal inhibitory concentration (MIC),[15],16 µM
same,hemolysis at 2 h,"[16]; at 200 µg/mL (highest tested concentration), 2 h, 37 °C, read-out: hemolysis",13.4%
same,hemolysis at 2 h,"[16]; at the lowest MIC concentration, read-out: Percentage of hemolysis",6.5%
same,selectivity ratio at 2 h,"[16]; peptide concentration at 10% hemolysis / IC50 in HeLa cells, read-out: Selectivity index",0.7
same,IC50,"[17]; HeLa cells, MTT, read-out: Cytotoxic Activity (IC50)",140 µg/mL and 87 µM
"CCN(CC)c1ccc2c(-c3ccccc3C(=O)N[C@@H](CCCNC(=N)N)C(=O)N[C@@H](CCCNC(=N)N)C(=O)N[C@@H](Cc3c[nH]c4ccccc34)C(=O)N[C@@H](CCC(N)=O)C(=O)N[C@@H](Cc3c[nH]c4ccccc34)C(=O)N[C@@H](CCCNC(=N)N)C(=O)N[C@@H](CCc3ccccc3)C(=O)N[C@@H](CCCCN)C(=O)N[C@@H](CCCCN)C(=O)N[C@@H](CC(C)C)C(=O)NCC(=O)NCCCC[C@H](NC(=O)CNC(=O)[C@H](CC(C)C)NC(=O)[C@H](CCCCN)NC(=O)[C@H](CCCCN)NC(=O)[C@H](CCc3ccccc3)NC(=O)[C@H](CCCNC(=N)N)NC(=O)[C@H](Cc3c[nH]c4ccccc34)NC(=O)[C@H](CCC(N)=O)NC(=O)[C@H](Cc3c[nH]c4ccccc34)NC(=O)[C@H](CCCNC(=N)N)NC(=O)[C@H](CCCNC(=N)N)NC(=O)c3ccccc3-c3c4ccc(=[N+](CC)CC)cc-4oc4cc(N(CC)CC)ccc34)C(=O)NCCCCCC(N)=O)c3ccc(=[N+](CC)CC)cc-3oc2c1 [RhB-2, (RhB-RRWQWR-hF-KKLG)2K-Ahx] (I: RhodamineB-RRWQWR[hPhe]KKLGK[Ahx]-NH2 / II: RhodamineB-RRWQWR[hPhe]KKLG; amide I:12-II:C)",cellular localization,[18],internalized and distributed in the cytoplasm
same,morphological changes,[19],"appeared smaller, rounded, and contained vacuoles"
same,IC50,[17],151 µg/mL and 35 µM

# Reference: PMC12383145, “Fluorescent Peptides Internalize HeLa Cells and Kill Multidrug-Resistant Clinical Bacterial Isolates” (Antibiotics, 2025)
